Assay results as given in patent publication US20090317461A1, “ORAL COMPOSITIONS EFFECTIVE FOR THE TREATMENT OF ORAL CAVITY MALODOR ASSOCIATED WITH THE CONSUMPTION OF ODOR-CAUSING COMPOUNDS” (Wm. Wrigley Jr. Company, priority 2006, published 2009).

Legend:
[1] = Menthol treatment of garlic model solution, TIC chromatogram peak area (Example 47)
Method: The following example details testing of menthol for treatment of solutions with characteristic garlic aroma. Model solutions containing raw chopped garlic dispersed in water were prepared as described in Example 1. Portions of model solution (2.5 g) were treated with menthol in varying amounts (0.5 mg, 1.0 mg, and 1.5 mg).

[2] = Headspace diallyl disulfide of garlic model solution treated with menthone, GC/MS at 5 hour intervals (Example 3); settings: menthone 1.63 mg in 2.5 g model solution; at each headspace analysis interval (5 hour intervals)
Method: A model solution containing raw chopped garlic dispersed in water was prepared as described in Example 1. […] For comparison purposes, the diallyl disulfide content of the headspace of a control model solution (i.e., no menthone added) was also analyzed.

[3] = Sensory analysis: ten panelists rate odor intensity of raw macerated garlic solution with and without active; settings: for reduction of odor (intensity) of raw macerated garlic in water: sensory panel; for Odor Intensity (0-100), Mean: N = 10 panelists
Method: Sensory analysis of the solutions utilized for analytical analyses of the raw garlic described above was conducted by ten panelists who evaluated the odor intensity of the model solution (raw macerated garlic) with and without the different levels of added active. Odor intensity was assessed utilizing a 0-100 point scale ballot with 0=no odor and 100=very strong odor.

| SMILES | reduction in odor-causing compounds ([1]; 0.5 mg in 2.5 g model solution) | reduction in odor-causing compounds ([1]; 1 mg in 2.5 g model solution) | reduction in odor-causing compounds ([1]; 1.5 mg in 2.5 g model solution) | less diallyl disulfide in headspace than control model solution [2] | reduction of odor (intensity) of raw macerated garlic in water ([3]; active concentration 0.3 mg/g) | reduction of odor (intensity) of raw macerated garlic in water ([3]; active concentration 3 mg/g) | Odor Intensity (0-100), Mean ([3]; menthone 0.33 mg/g) | Odor Intensity (0-100), Mean ([3]; menthone 1 mg/g) | Odor Intensity (0-100), Mean ([3]; menthone 3 mg/g) |
| --- | --- | --- | --- | --- | --- | --- | --- | --- | --- |
| CC1CCC(C(C)C)C(O)C1 (stereo not drawn) [menthol] | approximately 43% | approximately 51% | approximately 60% | – | – | – | – | – | – |
| CC(C)[C@@H]1CC[C@@H](C)CC1=O [menthone] | – | – | – | at least 50% | 48% | 80% | 5.2 | 2.7 | 2 |
